In US8476261B2, “Spirocyclic aminoquinolones as GSK-3 inhibitors” (Kyorin Pharmaceutical Co., Ltd., priority 2007, dated 2013) one finds IC50 data, which are given here for 68 compounds.

Where only a bound is given, the exact number is not on record here.

The target in the assay is T1, recombinant full-length human GSK3β (Homo sapiens, UniProt P49841).
T1 construct: recombinant full-length human GSK3β (Upstate); purchased Upstate
As to the kind of experiment: cell-free GSK3 kinase assay (KinaseGlo luciferase). In kind it is biochemical. The following applies: 5 μM ATP, 1 hour at 30 degrees Celsius. Here is the method: Proceed to KinaseGlo luciferase reaction.
Following the completion of the kinase reaction an equal volume of KinaseGlo luciferase reagent (Promega) is added and the luminescence read using a luminescence plate reader within 5-10 minutes.
(Kinase-Glo reads ATP consumption through a luciferase reaction.)

T1 sequence (P49841 whole entry): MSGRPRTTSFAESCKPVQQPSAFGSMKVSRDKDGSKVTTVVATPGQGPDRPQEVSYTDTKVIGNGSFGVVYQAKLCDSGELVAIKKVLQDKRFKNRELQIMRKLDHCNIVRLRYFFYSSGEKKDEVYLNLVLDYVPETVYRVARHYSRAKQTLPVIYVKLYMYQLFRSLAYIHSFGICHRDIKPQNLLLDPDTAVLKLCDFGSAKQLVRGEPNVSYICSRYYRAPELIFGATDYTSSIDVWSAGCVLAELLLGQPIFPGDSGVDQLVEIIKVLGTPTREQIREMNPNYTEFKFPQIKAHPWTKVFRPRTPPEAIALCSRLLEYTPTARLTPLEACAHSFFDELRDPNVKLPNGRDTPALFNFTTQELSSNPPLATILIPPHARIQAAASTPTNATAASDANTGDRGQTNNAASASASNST

Take `N#Cc1cn2c3c(c(NCCCc4ccccn4)c(F)c(N)c3c1=O)OCC21CC1`: under “Table 2”, the IC50 was less than 15 nM. The same measure, in the same setting: to `N#Cc1cn2c3c(c(NCCCc4cccnc4)c(F)c(N)c3c1=O)OCC21CC1` belongs less than 15 nM; to `N#Cc1cn2c3c(c(NCCCn4cccn4)c(F)c(N)c3c1=O)OCC21CC1`, less than 15 nM; to `N#Cc1cn2c3c(c(NCCCc4ccncc4)c(F)c(N)c3c1=O)OCC21CCCC1`, less than 15 nM. In the case of `Nc1c(F)c(NCCNc2ccccn2)c2c3c1c(=O)c(C(=O)O)cn3C1(CCCC1)CO2` [Compound 1], the half-inhibitory concentration (IC50) (Table 1) was less than 15 nM.

`Cc1cc(NCCNc2c(F)c(N)c3c(=O)c(C(=O)O)cn4c3c2OCC42CCCC2)nc2ccccc12` [Compound 2]: the IC50 (Table 1) was in the range of 61 to 150 nM. Same read-out and setting: to `Nc1c(F)c(NCCCn2cncn2)c2c3c1c(=O)c(C(=O)O)cn3C1(CCCC1)CO2` [Compound 3] belongs 61 to 150 nM.

In the case of `Nc1c(F)c(NCCCc2ccc(F)cc2)c2c3c1c(=O)c(C(=O)O)cn3C1(CCCC1)CO2` [Compound 4], the IC50 (Table 1) was less than 15 nM. `Nc1c(F)c(NCCCN2CCCc3ccccc32)c2c3c1c(=O)c(C(=O)O)cn3C1(CCCC1)CO2` [Compound 5]: the concentration for half-maximal inhibition (IC50) (Table 1) lay within 16 to 60 nM. On the same count and under the same terms, the value for `CC(CCc1ccc(Cl)cc1)Nc1c(F)c(N)c2c(=O)c(C(=O)O)cn3c2c1OCC31CCCC1` (centres unmarked) [Compound 6] was 16 to 60 nM. As for `Nc1c(F)c(NCCCNC(=O)c2ccco2)c2c3c1c(=O)c(C(=O)O)cn3C1(CCCC1)CO2` [Compound 7], the half-inhibitory concentration (IC50) (Table 1) was in the range of 16 to 60 nM. Same read-out and setting: to `Nc1c(F)c(NCCCNC(=O)C23CC4CC(CC(C4)C2)C3)c2c3c1c(=O)c(C(=O)O)cn3C1(CCCC1)CO2` [Compound 8] belongs 16 to 60 nM; to `Nc1c(F)c(NCCOc2ccc(F)cc2)c2c3c1c(=O)c(C(=O)O)cn3C1(CCCC1)CO2` [Compound 9], 16 to 60 nM; to `Cc1cc(OCCNc2c(F)c(N)c3c(=O)c(C(=O)O)cn4c3c2OCC42CCCC2)ccc1Cl` [Compound 10], 16 to 60 nM. Still for that read-out and setting: to `Nc1c(F)c(NCCSc2c[nH]c3ccccc23)c2c3c1c(=O)c(C(=O)O)cn3C1(CCCC1)CO2` [Compound 11] belongs less than 15 nM; to `Nc1c(F)c(NCCOc2ccc(Cl)cc2)c2c3c1c(=O)c(C(=O)O)cn3C1(CCCC1)CO2` [Compound 12], 61 to 150 nM; to `Nc1c(F)c(NCCOc2ccc(Cl)cc2Cl)c2c3c1c(=O)c(C(=O)O)cn3C1(CCCC1)CO2` [Compound 13], 61 to 150 nM. Same read-out and setting: to `COc1ccc(OCCNc2c(F)c(N)c3c(=O)c(C(=O)O)cn4c3c2OCC42CCCC2)cc1OC` [Compound 14] belongs less than 15 nM; to `Cc1ccc2nc(C)cc(NCCNc3c(F)c(N)c4c(=O)c(C(=O)O)cn5c4c3OCC53CCCC3)c2c1` [Compound 15], less than 15 nM.

For the compound `Cc1nnc(SCCNc2c(F)c(N)c3c(=O)c(C(=O)O)cn4c3c2OCC42CCCC2)[nH]1` [Compound 16], the IC50 (Table 1) was less than 15 nM. As to `Nc1c(F)c(NCCOc2ccc(C3CCCCC3)cc2)c2c3c1c(=O)c(C(=O)O)cn3C1(CCCC1)CO2` [Compound 17], where the note is “Table 1”, the IC50 is more than 150 nM. Still for that read-out and setting: the value for `Cn1ccnc1SCCNc1c(F)c(N)c2c(=O)c(C(=O)O)cn3c2c1OCC31CCCC1` [Compound 18] was less than 15 nM; that for `Nc1c(F)c(NCCS(=O)(=O)N2CCCCC2)c2c3c1c(=O)c(C(=O)O)cn3C1(CCCC1)CO2` [Compound 19] was 61 to 150 nM.

Take `Nc1c(F)c(NCCNC2=NS(=O)(=O)c3ccccc32)c2c3c1c(=O)c(C(=O)O)cn3C1(CCCC1)CO2` [Compound 20]: the IC50 (Table 1) was less than 15 nM. On the same count and under the same terms, to `Nc1c(F)c(NCCSc2nnnn2-c2ccccc2)c2c3c1c(=O)c(C(=O)O)cn3C1(CCCC1)CO2` [Compound 21] belongs less than 15 nM; to `Nc1c(F)c(NCC(O)Cn2cnc3ccccc32)c2c3c1c(=O)c(C(=O)O)cn3C1(CCCC1)CO2` (centres unmarked) [Compound 22], 61 to 150 nM. The same measure, in the same setting: to `CCN(CCCNc1c(F)c(N)c2c(=O)c(C(=O)O)cn3c2c1OCC31CCCC1)c1ccccc1` [Compound 23] belongs less than 15 nM; to `Nc1c(F)c(NCCN2CCc3ccccc32)c2c3c1c(=O)c(C(=O)O)cn3C1(CCCC1)CO2` [Compound 24], 61 to 150 nM. Same read-out and setting: to `Cc1ccc(OCCNc2c(F)c(N)c3c(=O)c(C(=O)O)cn4c3c2OCC42CCCC2)cc1` [Compound 25] belongs 16 to 60 nM; to `Nc1c(F)c(NCCCc2ccccn2)c2c3c1c(=O)c(C(=O)O)cn3C1(CCCC1)CO2` [Compound 26], less than 15 nM.

On to `Nc1c(F)c(NCCCc2ccccc2Cl)c2c3c1c(=O)c(C(=O)O)cn3C1(CCCC1)CO2` [Compound 27], for which the IC50 (Table 1) is less than 15 nM. On the same count and under the same terms, the value for `COc1ccc(CCCNc2c(F)c(N)c3c(=O)c(C(=O)O)cn4c3c2OCC42CCCC2)cc1` [Compound 28] was less than 15 nM. The same measure, in the same setting: to `CCOc1ccc(CCCNc2c(F)c(N)c3c(=O)c(C(=O)O)cn4c3c2OCC42CCCC2)cc1OCC` [Compound 29] belongs 16 to 60 nM. Regarding `Cc1cc(NCCNc2c(F)c(N)c3c(=O)c(C(=O)O)cn4c3c2OCC42CCCC2)c2ccccc2n1` [Compound 30], the IC50 (Table 1) was less than 15 nM. On to `CC(CCc1ccccc1Cl)Nc1c(F)c(N)c2c(=O)c(C(=O)O)cn3c2c1OCC31CCCC1` (centres unmarked) [Compound 31], for which the IC50 (Table 1) was in the range of 16 to 60 nM. Turning to `Cc1nn(C)c(C)c1CCCNc1c(F)c(N)c2c(=O)c(C(=O)O)cn3c2c1OCC31CCCC1` [Compound 32], the IC50 (Table 1) was less than 15 nM. Still for that read-out and setting: the value for `COc1ccc(OCCNc2c(F)c(N)c3c(=O)c(C(=O)O)cn4c3c2OCC42CCCC2)cc1` [Compound 34] was 61 to 150 nM; that for `Nc1c(F)c(NCCCc2ccccn2)c2c3c1c(=O)c(-c1nnn[nH]1)cn3C1(CCCC1)CO2` [Compound 35] was 16 to 60 nM. Still for that read-out and setting: to `N#Cc1cn2c3c(c(NCCCc4ccccn4)c(F)c(N)c3c1=O)OCC21CCCC1` [Compound 36] belongs less than 15 nM; to `N#Cc1cn2c3c(c(NCCCn4ccnc4)c(F)c(N)c3c1=O)OCC21CCCC1` [Compound 37], less than 15 nM; to `Cc1nn(C)c(C)c1CCCNc1c(F)c(N)c2c(=O)c(C#N)cn3c2c1OCC31CCCC1` [Compound 38], less than 15 nM. Consider `COc1ccc(C(CCNc2c(F)c(N)c3c(=O)c(C(=O)O)cn4c3c2OCC42CCCC2)c2ccc(F)cc2)cc1` (centres unmarked) [Compound 39], for which, for the setting “Table 1”, the IC50 was less than 15 nM. On the same count and under the same terms, to `Nc1c(F)c(NCCCc2ccc(Cl)cc2)c2c3c1c(=O)c(C(=O)O)cn3C1(CCCC1)CO2` [Compound 40] belongs more than 150 nM. Same read-out and setting: to `Cc1cc(C)n(CCCNc2c(F)c(N)c3c(=O)c(C(=O)O)cn4c3c2OCC42CCCC2)n1` [Compound 41] belongs 16 to 60 nM; to `Cc1[nH]ncc1CCCNc1c(F)c(N)c2c(=O)c(C(=O)O)cn3c2c1OCC31CCCC1` [Compound 42], less than 15 nM; to `N=C(NO)c1cn2c3c(c(NCCCn4ccnc4)c(F)c(N)c3c1=O)OCC21CCCC1` [Compound 43], 61 to 150 nM. In the case of `Nc1c(F)c(NCCNc2ccccn2)c2c3c1c(=O)c(C(=O)O)cn3C1(CCC1)CO2` [Compound 44], for the setting “Table 1”, the IC50 lay in the range of 16 to 60 nM. Same read-out and setting: the value for `Nc1c(F)c(NCCNc2ccccn2)c2c3c1c(=O)c(C(=O)O)cn3CC1(CCC1)O2` [Compound 45] was 61 to 150 nM; that for `Nc1c(F)c(NCCNc2ccccn2)c2c3c1c(=O)c(C(=O)O)cn3C1(CCO2)CC1` [Compound 46] was 16 to 60 nM. On the same count and under the same terms, to `Nc1c(F)c(NCCNc2ccccn2)c2c3c1c(=O)c(C(=O)O)cn3C1(CCC1)CCO2` [Compound 47] belongs 16 to 60 nM.

For the compound `Nc1c(F)c(NCCNc2ccccn2)c2c3c1c(=O)c(C(=O)O)cn3C1(CCCC1)CCO2` [Compound 48], the IC50 (Table 1) is more than 150 nM. The same measure, in the same setting: the value for `CC1COc2c(NCCNc3ccccn3)c(F)c(N)c3c(=O)c(C(=O)O)cn(c23)C12CCC2` (centres unmarked) [Compound 49] was less than 15 nM; that for `CC1CC2(CCC2)n2cc(C(=O)O)c(=O)c3c(N)c(F)c(NCCNc4ccccn4)c(c32)O1` (centres unmarked) [Compound 50] was more than 150 nM. Still for that read-out and setting: to `Nc1c(F)c(NCCNc2ccccn2)c2c3c1c(=O)c(C(=O)O)cn3CC1(CCC1)CO2` [Compound 51] belongs 61 to 150 nM. The same measure, in the same setting: the value for `Nc1c(F)c(NCCNc2ccccn2)c2c3c1c(=O)c(C(=O)O)cn3CC1(CC1)CO2` [Compound 52] was more than 150 nM; that for `Nc1c(F)c(NCCNc2ccccn2)c2c3c1c(=O)c(C(=O)O)cn3C1(CCC1)CCN2` [Compound 53] was 16 to 60 nM. As for `COc1ccc(CNc2c(F)c(N)c3c(=O)c(C(=O)O)cn4c3c2OCCC42CCC2)cc1` [Compound 55], the IC50 (Table 1) lay within 61 to 150 nM. Same read-out and setting: to `Nc1c(F)c(NCCCc2ccccn2)c2c3c1c(=O)c(C(=O)O)cn3C1(CCC1)CCO2` [Compound 56] belongs less than 15 nM; to `CCN(CCCNc1c(F)c(N)c2c(=O)c(C(=O)O)cn3c2c1OCCC31CCC1)c1ccccc1` [Compound 57], 16 to 60 nM. The same measure, in the same setting: the value for `Nc1c(F)c(NCCNC(=O)c2ccccn2)c2c3c1c(=O)c(C(=O)O)cn3C1(CCC1)CCO2` [Compound 58] was 16 to 60 nM. On the same count and under the same terms, the value for `Nc1c(F)c(NCCCc2ccc(F)cc2)c2c3c1c(=O)c(C(=O)O)cn3C1(CCC1)CCO2` [Compound 59] was less than 15 nM; that for `Nc1c(F)c(NCCCn2ccnc2)c2c3c1c(=O)c(C(=O)O)cn3C1(CCC1)CCO2` [Compound 60] was less than 15 nM; that for `Nc1nc(NCCNc2c(F)c(N)c3c(=O)c(C(=O)O)cn4c3c2OCCC42CCC2)ccc1[N+](=O)[O-]` [Compound 61] was 61 to 150 nM. Consider `Nc1c(F)c(NC2CCN(c3ccccn3)C2)c2c3c1c(=O)c(C(=O)O)cn3C1(CCC1)CCO2` (centres unmarked) [Compound 62], for which the IC50 (Table 1) is more than 150 nM. Same read-out and setting: the value for `Nc1c(F)c(N[C@H]2C[C@H]2Cc2ccccn2)c2c3c1c(=O)c(C(=O)O)cn3C1(CCCC1)CO2` [Compound 63] was more than 150 nM; that for `Nc1c(F)c(N[C@@H]2C[C@H]2Cc2ccccn2)c2c3c1c(=O)c(C(=O)O)cn3C1(CCCC1)CO2` [Compound 64] was 16 to 60 nM. As for `Nc1c(F)c(NCCCc2ccccc2)c2c3c1c(=O)c(C(=O)O)cn3C1(CCCC1)CO2` [Compound 65], the IC50 (Table 1) was less than 15 nM.

For `Nc1c(F)c(NCCOc2ccccc2)c2c3c1c(=O)c(C(=O)O)cn3C1(CCCC1)CO2` [Compound 66], the IC50 (Table 1) was more than 150 nM.

A word on the IC50: it is the midpoint of a concentration-inhibition curve.
